Laboratory results as given in ChEMBL document CHEMBL3994677, “Discovery of GSK2193874: An Orally Active, Potent, and Selective Blocker of Transient Receptor Potential Vanilloid 4” (ACS Med Chem Lett, 2017).

How the values were obtained:
[1] = biological target: Transient receptor potential cation channel subfamily V member 4 (Homo sapiens, UniProt Q9HBA0); assay: Antagonist activity at human TRPV4 expressed in HEK293 cells assessed as inhibition of GSK634775A-induced calcium influx preincubated for 10 mins followed by GSK634775A addition by […] dye based FLIPR assay; assay type: cell-based
[2] = biological target: T1, Transient receptor potential cation channel subfamily V member 4 (Rattus norvegicus, UniProt Q9ERZ8); assay: Antagonist activity at rat TRPV4 expressed in HEK293 cells assessed as inhibition of GSK634775A-induced calcium influx preincubated for 10 mins followed by GSK634775A addition by […] dye based FLIPR assay; assay type: cell-based
[3] = biological target: T1, Transient receptor potential cation channel subfamily V member 4; assay: Antagonist activity at rat TRPV4 expressed in HEK293 cells assessed as inhibition of 4alpha-PDD-induced intracellular calcium after 10 mins in presence of 45Ca2+ by microbeta liquid scintillation counting method; assay type: cell-based
[4] = biological target: Transient receptor potential cation channel subfamily V member 4 (Mus musculus, UniProt Q9EPK8); assay: Antagonist activity at mouse TRPV4 expressed in HEK293 cells assessed as inhibition of 4alpha-PDD-induced intracellular calcium after 10 mins in presence of 45Ca2+ by microbeta liquid scintillation counting method; assay type: cell-based
[5] = biological target: T2, Voltage-dependent L-type calcium channel subunit alpha-1C (Cavia porcellus, UniProt O35505); assay: Inhibition of Cav1.2 in guinea pig ventricular myocytes assessed as decrease in current amplitude at 0.1 Hz by patch clamp method; assay type: cell-based
[6] = biological target: T2, Voltage-dependent L-type calcium channel subunit alpha-1C; assay: Inhibition of Cav1.2 in guinea pig ventricular myocytes assessed as decrease in current amplitude at 2 Hz by patch clamp method; assay type: cell-based
[7] = biological target: Nuclear receptor subfamily 1 group I member 2 (Homo sapiens, UniProt O75469); assay: Activation of PXR (unknown origin); assay type: ADME
Sequence of Nuclear receptor subfamily 1 group I member 2 (O75469 whole entry): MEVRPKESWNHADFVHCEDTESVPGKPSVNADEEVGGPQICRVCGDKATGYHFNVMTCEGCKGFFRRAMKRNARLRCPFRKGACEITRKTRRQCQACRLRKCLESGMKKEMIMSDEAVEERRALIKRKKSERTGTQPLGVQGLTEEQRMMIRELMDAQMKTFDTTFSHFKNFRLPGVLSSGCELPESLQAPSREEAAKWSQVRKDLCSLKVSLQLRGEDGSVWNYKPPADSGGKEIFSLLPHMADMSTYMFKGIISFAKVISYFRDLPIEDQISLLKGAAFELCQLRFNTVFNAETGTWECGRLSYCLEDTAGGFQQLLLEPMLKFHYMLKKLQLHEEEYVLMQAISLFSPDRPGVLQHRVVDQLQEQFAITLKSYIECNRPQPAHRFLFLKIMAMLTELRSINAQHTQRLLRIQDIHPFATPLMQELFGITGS

Sequence of Transient receptor potential cation channel subfamily V member 4 (Homo sapiens, UniProt Q9HBA0) (Q9HBA0 whole entry): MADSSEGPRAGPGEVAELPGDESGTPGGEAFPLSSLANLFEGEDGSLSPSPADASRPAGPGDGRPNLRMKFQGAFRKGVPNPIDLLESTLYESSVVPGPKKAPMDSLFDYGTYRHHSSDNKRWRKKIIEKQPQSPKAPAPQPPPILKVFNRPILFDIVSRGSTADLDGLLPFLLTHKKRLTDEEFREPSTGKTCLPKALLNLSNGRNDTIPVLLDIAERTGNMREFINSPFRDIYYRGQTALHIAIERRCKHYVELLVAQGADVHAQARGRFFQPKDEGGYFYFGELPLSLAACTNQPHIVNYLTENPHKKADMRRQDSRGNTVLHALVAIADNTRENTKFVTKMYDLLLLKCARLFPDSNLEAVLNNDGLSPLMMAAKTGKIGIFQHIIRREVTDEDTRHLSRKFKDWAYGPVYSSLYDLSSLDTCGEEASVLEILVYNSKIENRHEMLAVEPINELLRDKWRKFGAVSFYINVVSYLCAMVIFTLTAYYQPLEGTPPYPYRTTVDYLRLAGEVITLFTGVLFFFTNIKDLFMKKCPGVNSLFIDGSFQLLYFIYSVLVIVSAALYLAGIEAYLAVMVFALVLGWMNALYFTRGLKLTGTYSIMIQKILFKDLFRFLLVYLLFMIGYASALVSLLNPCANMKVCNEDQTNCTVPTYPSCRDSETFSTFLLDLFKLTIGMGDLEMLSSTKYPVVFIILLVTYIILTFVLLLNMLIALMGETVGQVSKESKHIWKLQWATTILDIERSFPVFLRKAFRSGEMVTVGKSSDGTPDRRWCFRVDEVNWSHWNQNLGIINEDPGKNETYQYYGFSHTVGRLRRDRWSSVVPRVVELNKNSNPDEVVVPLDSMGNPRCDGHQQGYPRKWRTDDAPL
T1 sequence (Q9ERZ8 whole entry): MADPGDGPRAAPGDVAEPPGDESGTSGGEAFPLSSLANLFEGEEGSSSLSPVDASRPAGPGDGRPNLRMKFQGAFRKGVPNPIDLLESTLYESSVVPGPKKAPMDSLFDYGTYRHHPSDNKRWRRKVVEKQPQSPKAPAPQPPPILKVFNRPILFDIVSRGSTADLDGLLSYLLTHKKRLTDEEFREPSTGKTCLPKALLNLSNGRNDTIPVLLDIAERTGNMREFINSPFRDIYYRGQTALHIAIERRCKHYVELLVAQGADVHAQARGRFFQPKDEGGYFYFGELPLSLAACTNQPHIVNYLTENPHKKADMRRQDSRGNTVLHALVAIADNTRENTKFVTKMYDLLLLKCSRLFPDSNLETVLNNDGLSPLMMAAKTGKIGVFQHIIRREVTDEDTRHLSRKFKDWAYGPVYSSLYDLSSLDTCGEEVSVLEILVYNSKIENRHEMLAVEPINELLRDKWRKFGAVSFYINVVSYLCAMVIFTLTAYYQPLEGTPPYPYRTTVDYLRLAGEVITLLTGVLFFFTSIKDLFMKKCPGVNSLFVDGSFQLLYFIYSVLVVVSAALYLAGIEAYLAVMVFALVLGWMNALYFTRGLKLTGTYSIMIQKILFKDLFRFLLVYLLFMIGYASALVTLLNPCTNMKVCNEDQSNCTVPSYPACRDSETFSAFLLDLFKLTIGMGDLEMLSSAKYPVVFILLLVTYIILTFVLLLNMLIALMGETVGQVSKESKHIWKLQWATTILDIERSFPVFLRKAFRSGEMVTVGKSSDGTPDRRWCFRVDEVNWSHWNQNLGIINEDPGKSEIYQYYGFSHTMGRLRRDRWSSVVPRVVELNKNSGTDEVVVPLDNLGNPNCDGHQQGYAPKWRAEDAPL
T2 sequence (O35505 whole entry): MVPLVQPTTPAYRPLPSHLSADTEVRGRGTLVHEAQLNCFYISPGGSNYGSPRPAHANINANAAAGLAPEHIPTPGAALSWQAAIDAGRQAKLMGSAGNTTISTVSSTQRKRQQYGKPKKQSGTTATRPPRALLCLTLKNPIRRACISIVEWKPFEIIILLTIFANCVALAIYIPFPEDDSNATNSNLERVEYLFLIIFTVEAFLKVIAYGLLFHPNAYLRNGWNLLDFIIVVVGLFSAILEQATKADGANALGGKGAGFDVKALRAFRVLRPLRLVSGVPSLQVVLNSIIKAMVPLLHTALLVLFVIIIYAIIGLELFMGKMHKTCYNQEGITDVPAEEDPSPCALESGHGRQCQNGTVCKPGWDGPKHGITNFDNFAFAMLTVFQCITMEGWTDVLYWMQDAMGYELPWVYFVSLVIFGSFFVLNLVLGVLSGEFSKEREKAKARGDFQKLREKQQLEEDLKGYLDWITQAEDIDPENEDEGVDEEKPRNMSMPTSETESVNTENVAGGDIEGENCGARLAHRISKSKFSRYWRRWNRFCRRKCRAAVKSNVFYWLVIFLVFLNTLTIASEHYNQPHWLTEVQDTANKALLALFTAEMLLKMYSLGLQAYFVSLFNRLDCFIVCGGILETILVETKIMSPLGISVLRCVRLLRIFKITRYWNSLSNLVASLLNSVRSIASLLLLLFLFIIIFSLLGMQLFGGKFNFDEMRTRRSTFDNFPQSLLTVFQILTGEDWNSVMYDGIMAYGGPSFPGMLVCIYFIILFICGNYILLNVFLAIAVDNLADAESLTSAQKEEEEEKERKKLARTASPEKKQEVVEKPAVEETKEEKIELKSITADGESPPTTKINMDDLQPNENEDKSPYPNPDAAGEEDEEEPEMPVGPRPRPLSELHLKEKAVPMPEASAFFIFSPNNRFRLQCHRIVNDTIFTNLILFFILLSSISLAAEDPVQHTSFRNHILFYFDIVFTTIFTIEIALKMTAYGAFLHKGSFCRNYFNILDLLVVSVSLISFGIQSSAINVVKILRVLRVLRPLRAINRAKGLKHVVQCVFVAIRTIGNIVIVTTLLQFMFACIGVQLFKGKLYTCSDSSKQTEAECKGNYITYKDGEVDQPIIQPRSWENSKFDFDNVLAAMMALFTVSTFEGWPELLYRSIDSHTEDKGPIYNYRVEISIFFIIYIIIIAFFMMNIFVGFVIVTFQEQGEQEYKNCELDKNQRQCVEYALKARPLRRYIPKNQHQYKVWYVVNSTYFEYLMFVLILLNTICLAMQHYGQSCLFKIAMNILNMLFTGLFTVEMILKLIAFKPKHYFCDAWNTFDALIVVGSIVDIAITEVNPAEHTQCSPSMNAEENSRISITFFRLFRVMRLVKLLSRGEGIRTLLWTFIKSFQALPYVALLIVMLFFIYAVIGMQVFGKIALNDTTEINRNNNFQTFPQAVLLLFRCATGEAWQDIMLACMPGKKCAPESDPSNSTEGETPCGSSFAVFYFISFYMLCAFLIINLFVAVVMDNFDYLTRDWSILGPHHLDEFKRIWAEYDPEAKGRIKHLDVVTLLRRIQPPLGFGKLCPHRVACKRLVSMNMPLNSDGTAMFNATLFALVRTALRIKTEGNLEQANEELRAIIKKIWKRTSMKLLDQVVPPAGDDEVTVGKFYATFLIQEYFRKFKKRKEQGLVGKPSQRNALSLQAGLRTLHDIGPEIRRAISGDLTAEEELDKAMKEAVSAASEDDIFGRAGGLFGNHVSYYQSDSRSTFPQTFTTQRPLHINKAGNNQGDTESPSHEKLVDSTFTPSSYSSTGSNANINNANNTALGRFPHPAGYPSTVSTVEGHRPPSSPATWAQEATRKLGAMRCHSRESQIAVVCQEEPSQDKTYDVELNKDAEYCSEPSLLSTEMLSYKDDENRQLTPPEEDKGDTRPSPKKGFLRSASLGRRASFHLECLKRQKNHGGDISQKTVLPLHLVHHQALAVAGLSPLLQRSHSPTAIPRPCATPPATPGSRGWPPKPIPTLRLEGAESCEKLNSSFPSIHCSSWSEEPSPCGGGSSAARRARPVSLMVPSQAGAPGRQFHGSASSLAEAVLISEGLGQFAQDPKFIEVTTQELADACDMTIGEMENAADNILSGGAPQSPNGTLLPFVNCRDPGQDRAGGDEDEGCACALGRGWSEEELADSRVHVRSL

IC50 [1] [nM] | IC50 [2] [nM] | Structure (SMILES) | other results
80 | 1.6 | CCOc1ccc2c(C(=O)NC3(c4ccccc4)CC3)c(CN3CCC(N4CCCCC4)CC3)c(-c3cccc(C(F)(F)F)c3)nc2c1 | 
3160 | 790 | C[C@H](NC(=O)c1c(CN2CCC(N3CCNCC3)CC2)c(-c2cccc(C(F)(F)F)c2)nc2ccccc12)c1ccccc1 | 
500 | 13 | Cc1cccc(-c2nc3ccccc3c(C(=O)N[C@@H](C)c3ccccc3)c2CN2CCC(N3CCCCC3)CC2)c1 | 
60 | 2.5 | O=C(N[C@H](c1ccccc1)C(F)(F)F)c1c(CN2CCC(N3CCCCC3)CC2)c(-c2cccc(C(F)(F)F)c2)nc2ccc(Br)cc12 | 
320 | 16 | C[C@H](NC(=O)c1c(CN2CCC(N3CCCCC3)CC2)c(-c2ccc(Cl)cc2)nc2ccccc12)c1ccccc1 | 
3980 | 630 | COc1cccc(-c2nc3ccccc3c(C(=O)N[C@@H](C)c3ccccc3)c2CN2CCC(N3CCCCC3)CC2)c1 | 
> 25000 | > 25000 | C[C@H](NC(=O)c1c(CN2CCCCC2)c(-c2cccc(C(F)(F)F)c2)nc2ccccc12)c1ccccc1 | 
200 | 8 | C[C@H](NC(=O)c1c(CN2CCC(N3CCCCC3)CC2)c(-c2cccc(Cl)c2)nc2ccccc12)c1ccccc1 | 
130 | 25 | CC(C)[C@H](NC(=O)c1c(CN2CCC(N3CCCCC3)CC2)c(-c2cccc(C(F)(F)F)c2)nc2ccccc12)c1ccccc1 | 
500 | 50 | O=C(NCc1ccccc1)c1c(CN2CCC(N3CCCCC3)CC2)c(-c2cccc(C(F)(F)F)c2)nc2ccccc12 | 
 |  | CC(C)NCCN(C(C)C)S(=O)(=O)c1ccc(Cl)cc1Cl | IC50 [3]: 3200 nM; IC50 [4]: 5900 nM
40 | 2.5 | O=C(N[C@H](c1ccccc1)C(F)(F)F)c1c(CN2CCC(N3CCCCC3)CC2)c(-c2cccc(C(F)(F)F)c2)nc2ccccc12 | 
60 | 3.2 | O=C(N[C@H](c1ccccc1)C(F)(F)F)c1c(CN2CCC(N3CCCCC3)CC2)c(-c2cccc(C(F)(F)F)c2)nc2cc(Br)ccc12 | 
10 | 3.2 | CCOc1ccc2c(C(=O)N[C@H](c3ccccc3)C(F)(F)F)c(CN3CCC(N4CCCCC4)CC3)c(-c3cccc(C(F)(F)F)c3)nc2c1 | IC30 [5]: 10000 nM; IC30 [6]: 12000 nM; EC50 [7]: 1300 nM
50 | 4 | C[C@H](NC(=O)c1c(CN2CCC(N3CCOCC3)CC2)c(-c2cccc(C(F)(F)F)c2)nc2ccccc12)c1ccccc1 | 
250 | 2.5 | COc1ccc2c(C(=O)NC3(c4ccccc4)CC3)c(CN3CCC(N4CCCCC4)CC3)c(-c3cccc(C(F)(F)F)c3)nc2c1 | 
